Source: patent publication US20060089395A1, “Nf-kb activation inhibitors” (priority 2002, published 2006)
Where two headings read alike, the source gives them in different places.

System: NF-κ B
Assay: Inhibitory activity of NF-κ B activation, luciferase reporter assay in HepG2 under TNF-α stimulation
Assay type: cell-based, human
Conditions: for inhibition at 0.1 µg/mL / inhibition at 1 µg/mL / inhibition at 10 µg/mL: Homo sapiens; for inhibition at 0.1 µg/mL: 0.1 μg/ml, read-out: Inhibitory Ratio of NF-κB Activation (%) 0.1 μg/ml
Experimental: Using a transfection reagent(Effectene; QIAGEN), the human hepatoma cell strain HepG2 was transfected with a plasmid(pNF κ B-Luc Reporter Plasmid; […]) which is integrated with an oligonucleotide having five tandem copies of NF-κ B binding sequences([…]) on a upstream region of firefly luciferase gene(Luc) according to the QIAGEN's protocol, and the cells were incubated for 6 to 24 hours. After the addition of TNF-α (40 ng/ml) in the presence or absence of a test compound, the cells were incubated for 4 hours, and intracellular luciferase activity was measured by using PicaGene LT (TOYO INK MFG Co., Ltd.) and a chemical luminescence measurement apparatus ([…]luor Plus; TECAN). The inhibitory ratio was measured as a ratio relative to the value of a luciferase activity in the absence of the test compound.

[1] = 1 μg/mL, HepG2, TNF-α (40 ng/ml), 4 hours
[2] = 10 μg/mL, HepG2, TNF-α (40 ng/ml), 4 hours
[3] = HepG2, 4 h, comparison table, reporter assay
[4] = HepG2, 4 h, 1 μg/ml, comparison table, reporter assay, read-out: Inhibitory Ratio of NF-κB Activation (%) 1 μg/ml
[5] = HepG2, 4 h, 10 μg/ml, comparison table, reporter assay, read-out: Inhibitory Ratio of NF-κB Activation (%) 10 μg/ml
[6] = 1 μg/mL, HepG2, TNF-α (40 ng/ml), 4 hours, read-out: Inhibitory Ratio of NF-κ B Activation(%) Drug Concentration 1 μg/mL
[7] = 10 μg/mL, HepG2, TNF-α (40 ng/ml), 4 hours, read-out: Inhibitory Ratio of NF-κ B Activation(%) Drug Concentration 10 μg/mL

Inhibitory Ratio of NF-κ B Activation(%) Drug Concentration 1 μg/mL [1] | Inhibitory Ratio of NF-κ B Activation(%) Drug Concentration 10 μg/mL [2] | Compound | also measured
76.8% | 96.0% | CC(O)c1ccc(O)c(C(=O)Nc2cc(C(F)(F)F)cc(C(F)(F)F)c2)c1 (stereo not shown) [Compound No. 13] | –
87.8% | 99.4% | CCC(C)(C)c1ccc(O)c(NC(=O)c2cc(Cl)ccc2O)c1 [Compound No. 177] | –
97.6% | 98.3% | CCC(C)(C)c1ccc(Oc2ccccc2)c(NC(=O)c2cc(Cl)ccc2O)c1 [Compound No. 164] | –
88.3% | 97.1% | Cc1ccc(C)c(NC(=O)c2cc(Cl)ccc2O)c1 [Compound No. 153] | –
– | – | O=C(Nc1ccc(C(F)(F)F)cc1)c1cc(Cl)ccc1O [drawing 561, reference compound] | inhibition at 0.1 µg/mL [3]: -35.5%; inhibition at 1 µg/mL [4]: 85.3%; inhibition at 10 µg/mL [5]: 95%
85.3% | 90.2% | O=C(Nc1cc(Cl)cc(Cl)c1)c1c(O)ccc2ccccc12 [Compound No. 182] | –
45.0% | 85.8% | CCOC(=O)c1sc(NC(=O)c2cc(-c3ccc(F)cc3)ccc2O)nc1-c1ccccc1 [Compound No. 226] | –
– | – | O=C(Nc1nc(-c2cc(C(F)(F)F)cc(C(F)(F)F)c2)cs1)c1cc(Cl)ccc1O [Compound No. 231, 5-Chloro-2-hydroxy-N-{4-[3,5-bis(trifluoromethyl)phenyl]thiazol-2-yl}benzamide] | inhibition at 1 µg/mL [6]: 95.9%; inhibition at 10 µg/mL [7]: 94.5%
42.2% | 95.9% | CN(C)S(=O)(=O)c1ccc(O)c(C(=O)Nc2cc(C(F)(F)F)cc(C(F)(F)F)c2)c1 [Compound No. 41, N-[3,5-Bis(trifluoromethyl)phenyl]-5-dimethylsufamoyl-2-hydroxybenzamide] | –
25.5% | 78.9% | COc1cc(Cl)nc(NC(=O)c2cc(Cl)ccc2O)n1 [Compound No. 241] | –
– | – | O=C(Nc1cccc(C(F)(F)F)c1)c1cc(Br)ccc1O [drawing 560, reference compound] | inhibition at 0.1 µg/mL [3]: -20.9%; inhibition at 1 µg/mL [4]: 88%; inhibition at 10 µg/mL [5]: 89.6%
– | – | CC(C)(C)c1nc(NC(=O)c2cc(Br)ccc2O)sc1N1CCOCC1 [Compound No. 205, 5-Bromo-N-{4-[(1,1-dimethyl)ethyl]-5-morpholinothiazol-2-yl}-2-hydroxybenzamide] | inhibition at 1 µg/mL [6]: 87.8%; inhibition at 10 µg/mL [7]: 96.8%
– | – | Cc1cccc(C(=O)Nc2cc(C(F)(F)F)cc(C(F)(F)F)c2)c1O [Compound No. 58, N-[3,5-bis(trifluoromethyl)phenyl]-2-hydroxy-3-methylbenzamide] | inhibition at 1 µg/mL [6]: 88.2%; inhibition at 10 µg/mL [7]: 95%
– | – | Cc1nc(-c2ccc(O)c(C(=O)Nc3cc(C(F)(F)F)cc(C(F)(F)F)c3)c2)cs1 [Compound No. 30, N-[3,5-Bis(trifluoromethyl)phenyl]-2-hydroxy-5-(2-methylthiazol-4-yl)benzamide] | inhibition at 1 µg/mL [6]: 82.1%; inhibition at 10 µg/mL [7]: 95.3%
– | – | O=C(Nc1ccccc1C(F)(F)F)c1cc(Cl)ccc1O [drawing 562, reference compound] | inhibition at 0.1 µg/mL [3]: -18.4%; inhibition at 1 µg/mL [4]: 41.6%; inhibition at 10 µg/mL [5]: 92.9%
– | – | CC(C)(C)c1csc(NC(=O)c2cc(Br)ccc2O)n1 [Compound No. 185, 5-Bromo-N-{4-[(1,1-dimethyl)ethyl]thiazol-2-yl}-2-hydroxybenzamide] | inhibition at 1 µg/mL [6]: 88.4%; inhibition at 10 µg/mL [7]: 95.2%
49.6% | 91.3% | CC(C)NC(=O)c1sc(NC(=O)c2cc(Br)ccc2O)nc1-c1ccccc1 [Compound No. 222] | –
>99.9% | – | Cc1cc(Br)cc(C(=O)Nc2cc(C(F)(F)F)cc(C(F)(F)F)c2)c1O [Compound No. 258] | –
52.6% | 98.8% | O=C(Nc1ccccc1)c1ccc(Cl)c(NC(=O)c2cc(Cl)ccc2O)c1 [Compound No. 157] | –
81.5% | 94.3% | O=C(Nc1cc(C(F)(F)F)cc(C(F)(F)F)c1)c1cc(F)ccc1O [compound 3] | –
– | – | O=C(Nc1nc(-c2ccccc2)c(C(=O)c2ccccc2)s1)c1cc(Br)ccc1O [Compound No. 215, 5-Bromo-N-(5-benzoyl-4-phenylthiazol-2-yl)-2-hydroxybenzamide] | inhibition at 1 µg/mL [6]: 90.7%; inhibition at 10 µg/mL [7]: 97.3%
49.1% | 88.7% | Cc1ccc(O)c(C(=O)Nc2cc(Cl)cc(Cl)c2)c1 [Compound No. 131] | –
– | – | CC(=O)c1ccc(O)c(C(=O)Nc2cc(C(F)(F)F)cc(C(F)(F)F)c2)c1 [Compound No. 12, 5-acetyl-N-[3,5-bis(trifluoromethyl)phenyl]-2-hydroxybenzamide] | inhibition at 1 µg/mL [6]: 86.3%; inhibition at 10 µg/mL [7]: 99.2%
26.1% | 90.3% | O=C(Nc1nnc(C(F)(F)F)s1)c1cc(Br)ccc1O [Compound No. 238] | –
82.4% | 97.9% | COc1ccc(-c2ccccc2)cc1NC(=O)c1cc(Cl)ccc1O [Compound No. 141] | –
– | – | N#Cc1ccc(O)c(C(=O)Nc2cc(C(F)(F)F)cc(C(F)(F)F)c2)c1 [compound 9, N-[3,5-Bis(trifluoromethyl)phenyl]-5-cyano-2-hydroxybenzamide] | inhibition at 1 µg/mL [6]: 92.2%; inhibition at 10 µg/mL [7]: 99.6%
91.8% | 96.8% | O=C(Nc1cc(F)cc(F)c1)c1cc(Br)ccc1O [Compound No. 123] | –
– | – | O=C(Nc1nc(-c2ccc(Cl)cc2Cl)cs1)c1cc(Cl)ccc1O [Compound No. 255, 5-Chloro-2-hydroxy-N-[4-(2,4-dichlorophenyl)thiazol-2-yl]benzamide] | inhibition at 1 µg/mL [6]: > 99.9%
– | – | CC(C)(C)c1cc(NC(=O)c2cc(Cl)ccc2O)cc(C(C)(C)C)c1 [Compound No. 138, N-{3,5-bis[(1,1-dimethyl)ethyl]phenyl}-5-chloro-2-hydroxybenzamide] | inhibition at 1 µg/mL [6]: 89.6%; inhibition at 10 µg/mL [7]: 98.1%

Compound | Inhibitory Ratio of NF-κ B Activation(%) Drug Concentration 1 μg/mL [1] | Inhibitory Ratio of NF-κ B Activation(%) Drug Concentration 10 μg/mL [2] | also measured
COc1cc(NC(=O)c2cc(Cl)ccc2O)cc(C(F)(F)F)c1 [Compound No. 105] | 94.6% | 97.5% | –
O=C(Nc1cc(C(F)(F)F)cc(C(F)(F)F)c1)c1cc2ccccc2cc1O [Compound No. 72] | 94.6% | 95.0% | –
CSc1ccc(C(F)(F)F)cc1NC(=O)c1cc(Cl)ccc1O [Compound No. 96] | 94.6% | 99.1% | –
Cc1ccc(O)c(C(=O)Nc2cc(C(C)(C)C)cc(C(C)(C)C)c2)c1 [Compound No. 147] | 38.9% | 91.0% | –
O=C(Nc1cc(C(F)(F)F)cc(C(F)(F)F)c1)c1cc(Cl)cnc1O [Compound No. 75] | 58.1% | 82.2% | –
O=C(Nc1cc(C(F)(F)F)ccc1N1CCC(C(F)(F)F)CC1)c1cc(Cl)ccc1O [Compound No. 112] | 96.5% | 95.7% | –
CC(C)(C)c1ccc(C(C)(C)C)c(NC(=O)c2cc(Cl)ccc2O)c1 [Compound No. 134] | 89.1% | 96.3% | –
O=C(Nc1cc(C(F)(F)F)ccc1Oc1ccc2ccccc2c1)c1cc(Cl)ccc1O [Compound No. 110] | 96.5% | 98.7% | –
CC(C)(C)CC(C)(C)c1ccc(O)c(C(=O)Nc2cc(C(F)(F)F)cc(C(F)(F)F)c2)c1 [Compound No. 60] | 94.0% | 99.1% | –
O=C(Nc1cc(C(F)(F)F)cc(C(F)(F)F)c1)c1cc(Br)c(O)cc1O [Compound No. 54] | – | 86.5% | –
COc1ccc(-n2cccc2)c(NC(=O)c2cc(Cl)ccc2O)c1 [Compound No. 167] | 76.4% | 98.7% | –
O=C(Nc1cc(C(F)(F)F)ccc1[N+](=O)[O-])c1cc(Cl)ccc1O [Compound No. 91] | 86.3% | 96.7% | –
